Reference: patent US20240384321A1, “Microfluidic chip and use thereof for continuous monitoring of bacterium intended for motion, growth and morphology detection” (National Health Research Institutes, priority 2023, published 2024)

How the values were obtained:
E. coli GFP [1] = assay: Antibiotic susceptibility of bulky bacteria on agar plates (E-test); assay type: cell-based, Escherichia coli (ATCC 25922 GFP)
Protocol: (§1) Escherichia coli (E. coli) (ATCC 25922 GFP™) was chosen as a model bacterium. Ampicillin and gentamicin were chosen as model antibiotic drugs. The operational parameters were optimized to isolate 0 or 1 bacterium in each chamber. For the determination of minimum inhibitory concentration (MIC), fluorescence intensity of the sample was measured via inverted fluorescence microscope at 2 hours intervals, during 6 hours of incubation in a temperature-controlled chamber at 37° C. The time-dependent morpho-structural variabilities of bacterium were characterized by a software. […] 0.25 μg/ml GM inhibits bulky E. coli GFP growth on agar plates and microfluidic chip. On the contrary, 0.1 μg/ml GM inhibits growth of ˜90% E. coli GFP in the microfluidic chip, and resistant subpopulation continue growing after 4 h. The present invention shed light on breakthrough development in bacterial resistance research and rapid drug testing applications.
The multi-parametric motion-analysis incorporating line length, elongation ratio, circularity, line speed, path speed and intensity are found useful for the identification of resistance and susceptibility of E. coli in 4 hours. […] However, resistant subpopulation continues growing after 4 h.

E. coli GFP [2] = assay: Antibiotic susceptibility testing in the microfluidic chip (fluorescence, MIC determination); assay type: cell-based, Escherichia coli (ATCC 25922 GFP)
Protocol: as §1, with “applications. […]” for “applications.”
Step 3, The morpho-structural changes and Dynamic phenotypic analysis of bacterium were evaluated by microscopy methods. […] In this and the following examples, E. coli is monitored during the first 6 hours and after 21 hours of incubation at 37° C. inside a temperature-controlled chamber placed on the microscope-stage. […]

## gentamicin [GM]
E. coli GFP [1]
  concentration that inhibits bulky E. coli GFP growth (MIC): 0.25 µg/mL
E. coli GFP [2]; 0.1 μg/ml GM, resistant subpopulation continues growing after 4 h
  share of E. coli GFP whose growth is inhibited: ~90%
E. coli GFP [2]; bulky bacteria, 37° C., 6 hours incubation
  concentration that inhibits bulky E. coli GFP growth (MIC): 0.25 µg/mL
